Results from patent US7423157B2, “Substituted benzimidazoles and their use for inducing apoptosis” (Basilea Pharmaceutica AG, priority 2004, dated 2008).

Experiments:
Jurkat [1] = assay: Hoechst 33342 nuclear staining, Jurkat; assay type: cell-based, human; conditions: 48 h
Method: (§1) This assay is performed in 96 well tissue culture plates. Appropriate number of cells (adherent cells: 3-5*10^3, suspension cells: 8-10*10^3) are being seeded out in 80 μl complete medium. Adherent cells are incubated for 24 h for proper spreading out before addition of test compounds while suspension cells are immediately treated with test compounds after seeding out. The test compounds are added in 20 μl complete medium containing max 5% DMSO. The final compound concentrations in the assays are 10 μM, 3 μM, 1 μM and 0.3 μM, respectively. […] The assay plates are then further incubated for 30 minutes and subsequently analyzed with a standard inverted fluorescence microscope.
(§2) The readout allows the determination of the fraction of apoptotic nuclei as well as other morphological criteria specific for apoptosis as a function of the treatment. The following scores are used: 0 relating to no activity, 1 relating to weak activity comprising less than 50% of the cells and score 2 relating to strong activity comprising more than 50% of the cells.

Jily = assay: Hoechst 33342 nuclear staining, Jily; assay type: cell-based; conditions: 48 h
Method: as §1, §2

PBLs = assay: Hoechst 33342 nuclear staining, PBLs; assay type: cell-based; set-up: key: 0 = no activity, 1 = weak (<50% of cells), 2 = strong (>50% of cells); conditions: 48 h
Method: as §1, §2

HeLa [2] = assay: Hoechst 33342 nuclear staining, HeLa; assay type: cell-based, human; conditions: 48 h
Method: as §1, §2

H460 = assay: Hoechst 33342 nuclear staining, H460; assay type: cell-based, human; conditions: H460, 48 h
Method: as §1, §2

MRC5 = assay: Hoechst 33342 nuclear staining, MRC5; assay type: cell-based; set-up: key: 0 = no activity, 1 = weak (<50% of cells), 2 = strong (>50% of cells); conditions: MRC5, 48 h
Method: as §1, §2

Jurkat [3] = assay: MTS proliferation assay, Jurkat; assay type: cell-based, human; conditions: Homo sapiens, 72 h incubation
Method: (§3) The assay is performed in 96 well tissue culture plates. The cells (range: 1.5*10^3-10^4) are seeded out in 80 μl complete medium 24 h prior to compound treatment. The test compounds are added in 20 μl complete medium containing max 5% DMSO. The final compound concentrations in the assays are 10 μM, 3 μM, 1 μM and 0.3 μM, respectively. The assay plates are incubated for 72 h at culture conditions. The MTS reagent is prepared according to the manufacturer's protocol (Promega G1111). 20 μl MTS reagent are added to each well, the assay plates are quickly spun and incubated for another 3 h at culture conditions. Subsequently, the plates are shortly shaked and absorption measured with a microplate-reader at 492 nm.

HeLa [4] = assay: MTS proliferation assay, HeLa; assay type: cell-based, human; conditions: Homo sapiens, 72 h incubation
Method: as §3

Structure (SMILES) | Hoechst 33342 nuclear staining score (Jurkat [1]; conc. 0.3 (μM)) | Hoechst 33342 nuclear staining score (Jurkat [1]; conc. 1 (μM)) | Hoechst 33342 nuclear staining score (Jurkat [1]; conc. 3 (μM)) | Hoechst 33342 nuclear staining score (Jurkat [1]; conc. 10 (μM)) | Hoechst 33342 nuclear staining score (Jily; conc. 0.3 (μM)) | Hoechst 33342 nuclear staining score (Jily; conc. 1 (μM)) | Hoechst 33342 nuclear staining score (Jily; conc. 3 (μM)) | Hoechst 33342 nuclear staining score (Jily; conc. 10 (μM)) | Hoechst 33342 nuclear staining score (PBLs; conc. 0.3 (μM)) | Hoechst 33342 nuclear staining score (PBLs; conc. 1 (μM)) | Hoechst 33342 nuclear staining score (PBLs; conc. 3 (μM)) | Hoechst 33342 nuclear staining score (PBLs; conc. 10 (μM)) | Hoechst 33342 nuclear staining score (HeLa [2]; conc. 0.3 (μM)) | Hoechst 33342 nuclear staining score (HeLa [2]; conc. 1 (μM)) | Hoechst 33342 nuclear staining score (HeLa [2]; conc. 3 (μM)) | Hoechst 33342 nuclear staining score (HeLa [2]; conc. 10 (μM)) | Hoechst 33342 nuclear staining score (H460; conc. 0.3 (μM)) | Hoechst 33342 nuclear staining score (H460; conc. 1 (μM)) | Hoechst 33342 nuclear staining score (H460; conc. 3 (μM)) | Hoechst 33342 nuclear staining score (H460; conc. 10 (μM)) | also measured
Cc1ccc(C(=O)Cn2c(-n3ncnc3N)nc3ccccc32)cc1C [Example 1, 3-Amino-2-(1-[3,4-dimethylphenylcarbonylmethyl]benzimidazol-2-yl)-1,2,4-triazole] | 2 (score 2 relating to strong activity comprising more than 50% of the cells) | 2 (score 2 relating to strong activity comprising more than 50% of the cells) | 2 (score 2 relating to strong activity comprising more than 50% of the cells) | 2 (score 2 relating to strong activity comprising more than 50% of the cells) | 2 (score 2 relating to strong activity comprising more than 50% of the cells) | 2 (score 2 relating to strong activity comprising more than 50% of the cells) | 2 (score 2 relating to strong activity comprising more than 50% of the cells) | 2 (score 2 relating to strong activity comprising more than 50% of the cells) | 0 | 0 | 0 | 0 | 2 (score 2 relating to strong activity comprising more than 50% of the cells) | 2 (score 2 relating to strong activity comprising more than 50% of the cells) | 2 (score 2 relating to strong activity comprising more than 50% of the cells) | 2 (score 2 relating to strong activity comprising more than 50% of the cells) | 2 (score 2 relating to strong activity comprising more than 50% of the cells) | 2 (score 2 relating to strong activity comprising more than 50% of the cells) | 2 (score 2 relating to strong activity comprising more than 50% of the cells) | 2 (score 2 relating to strong activity comprising more than 50% of the cells) | Hoechst 33342 nuclear staining score (MRC5; conc. 0.3 (μM)): 1 (1 relating to weak activity comprising less than 50% of the cells); Hoechst 33342 nuclear staining score (MRC5; conc. 1 (μM)): 2 (score 2 relating to strong activity comprising more than 50% of the cells); Hoechst 33342 nuclear staining score (MRC5; conc. 3 (μM)): 2 (score 2 relating to strong activity comprising more than 50% of the cells); Hoechst 33342 nuclear staining score (MRC5; conc. 10 (μM)): 2 (score 2 relating to strong activity comprising more than 50% of the cells); IC50 (Jurkat [3]): < 100 nM; IC50 (HeLa [4]): < 100 nM
COc1ccc(C(=O)Cn2c(-n3ccc(N)n3)nc3ccccc32)cc1 [Example 2, 5-Amino-2-(1-[4-methoxyphenylcarbonylmethyl]benzimidazol-2-yl)-pyrazole] | 0 | 0 | 2 (score 2 relating to strong activity comprising more than 50% of the cells) | 2 (score 2 relating to strong activity comprising more than 50% of the cells) | 0 | 2 (score 2 relating to strong activity comprising more than 50% of the cells) | 2 (score 2 relating to strong activity comprising more than 50% of the cells) | 2 (score 2 relating to strong activity comprising more than 50% of the cells) | 0 | 0 | 0 | 2 (score 2 relating to strong activity comprising more than 50% of the cells) | 0 | 0 | 2 (score 2 relating to strong activity comprising more than 50% of the cells) | 2 (score 2 relating to strong activity comprising more than 50% of the cells) | 0 | 0 | 2 (score 2 relating to strong activity comprising more than 50% of the cells) | 2 (score 2 relating to strong activity comprising more than 50% of the cells) | Hoechst 33342 nuclear staining score (MRC5; conc. 0.3 (μM)): 0; Hoechst 33342 nuclear staining score (MRC5; conc. 1 (μM)): 0; Hoechst 33342 nuclear staining score (MRC5; conc. 3 (μM)): 0; Hoechst 33342 nuclear staining score (MRC5; conc. 10 (μM)): 0
CS(=O)(=O)O.Nc1ccc(C(=O)Cn2c(-n3ncnc3N)nc3ccccc32)cn1 [Example 15] | 2 (score 2 relating to strong activity comprising more than 50% of the cells) | 2 (score 2 relating to strong activity comprising more than 50% of the cells) | 2 (score 2 relating to strong activity comprising more than 50% of the cells) | 2 (score 2 relating to strong activity comprising more than 50% of the cells) | 2 (score 2 relating to strong activity comprising more than 50% of the cells) | 2 (score 2 relating to strong activity comprising more than 50% of the cells) | 2 (score 2 relating to strong activity comprising more than 50% of the cells) | 2 (score 2 relating to strong activity comprising more than 50% of the cells) | 0 | 0 | 0 | 0 | 2 (score 2 relating to strong activity comprising more than 50% of the cells) | 2 (score 2 relating to strong activity comprising more than 50% of the cells) | 2 (score 2 relating to strong activity comprising more than 50% of the cells) | 2 (score 2 relating to strong activity comprising more than 50% of the cells) | 2 (score 2 relating to strong activity comprising more than 50% of the cells) | 2 (score 2 relating to strong activity comprising more than 50% of the cells) | 2 (score 2 relating to strong activity comprising more than 50% of the cells) | 2 (score 2 relating to strong activity comprising more than 50% of the cells) | Hoechst 33342 nuclear staining score (MRC5; conc. 0.3 (μM)): 1 (1 relating to weak activity comprising less than 50% of the cells); Hoechst 33342 nuclear staining score (MRC5; conc. 1 (μM)): 1 (1 relating to weak activity comprising less than 50% of the cells); Hoechst 33342 nuclear staining score (MRC5; conc. 3 (μM)): 1 (1 relating to weak activity comprising less than 50% of the cells); Hoechst 33342 nuclear staining score (MRC5; conc. 10 (μM)): 1 (1 relating to weak activity comprising less than 50% of the cells)
